Experimental data published in patent US20120270935A1, “FORMULATIONS” (priority 2009, published 2012).

Tested on: P. acnes
Assay: Agar dilution MIC assay, panel of propionibacterium strains
Format: cell-based, Propionibacterium acnes
Procedure: This is a standard international method for quantitatively assessing the antimicrobial activity of a compound in a solid medium. The test compound was prepared to 40× the highest concentration required (eg 10 mg/ml for a final concentration of […]) and a series of doubling dilutions were performed in a suitable solvent. A set amount of these antimicrobial stock solutions was then added to molten agar medium (ca 55° C.), mixed thoroughly, poured into sterile Petri dishes and allowed to cool/set. The culture medium was as described above.
A Multipoint™ Inoculator (AQS Manufacturing Ltd, UK) was used to inoculate the plates by spotting the inocula onto the surface of the agar, delivering approximately 1 to 2 μl per spot (yielding 10^5 CFU (colony forming units) per spot).
The plate(s) were then incubated under the conditions described above, following which they were examined visually for signs of bacterial growth. The MIC value was ascertained when there was a marked reduction in, or total loss of, growth on the test plate at the lowest concentration as compared to that of the growth on the control plate.
The assays were conducted in triplicate and included a positive control (culture medium, diluting solvent and inoculum).
The activity (MIC by agar dilution) of copper usnate was determined against a panel of different propionibacterium strains. The culture medium was Wilkins-Chalgren agar, at pH 6.0. DMSO was used as the solvent. All tests were performed in triplicate.

Measured: MIC

CC(=O)c1c([O-])c(C)c([O-])c2c1OC1=CC(=O)C(C(C)=O)C(=O)C12C.[Cu+2] (centres unmarked) [Copper usnate, copper (II) usnate]
0.49 µg/mL: P. acnes NCTC 737, mutation None, resistance phenotype None | P. acnes PRP-002, mutation 1058/2058, resistance Tet/MLS | P. acnes PRP-003, mutation 1058, resistance Tet | P. acnes PRP-004, mutation 1058, resistance Tet | P. acnes PRP-007, mutation Unknown, resistance Clin | P. acnes PRP-010, Erm X, resistance MLSK | P. acnes PRP-017, mutation 2058, resistance MLS | P. acnes PRP-023, Erm X, resistance MLSK | P. acnes PRP-026, mutation 2059, resistance MLS | P. acnes PRP-039, mutation 2059, resistance Tet/MLS | P. acnes PRP-046, mutation None, resistance None | P. acnes PRP-059, mutation 2058, resistance MLS | P. acnes PRP-101, mutation 1058/2059, resistance Tet/MLS | P. acnes PRP-102, mutation 1058/2059, resistance Tet/MLS
